Assay results from patent US20110104175A1, “METHODS OF TREATMENT FOR PULMONARY FIBROSIS” (CEDARS-SINAI MEDICAL CENTER, priority 2008, published 2011).
Read-outs that look alike come from different tables or passages of the source. Peptide text beside a SMILES is read from it.

What was measured:
[1] = system: wild-type, N-KO and C-KO mice
Source text: (§1) Preparation of Mice. We generated mice expressing site-inactivated ACE by homologous recombination. N-KO mice express a full length ACE protein where the N-terminal catalytic site was inactivated by mutating two zinc-binding histidines (^395H and ^399H) to lysines. In the C-KO strain, ^993H and ^997H, which are responsible for the zinc binding and catalytic activity of the C-terminal enzymatic site, were mutated to lysine. The generation of these two strains of mice has been described in detail prior. Both N-KO and C-KO mice are a genetic mix of strains 129 and C57BL/6. Age and gender-matched littermate controls were used in all studies. All mice used in this study have only one functional renin gene. Drug Administration. The administration of bleomycin was performed under anesthesia by intratracheal instillation as previously described. A small skin incision was made to expose the trachea. A 25-gauge needle was inserted directly into the trachea without reaching the bifurcation and the animals were maintained on the surgical board with a 30 degree angle to ensure a correct diffusion of the drug or saline to both lungs. Bleomycin was solubilized in water, aliquoted, lyophilized and kept at −20 C. For each experiment a fresh aliquot was dissolved in saline and, unless otherwise indicated, administered in a dose of 1 mg/kg. The concentration of the solution was adapted to inject 2 μl/g, The skin was then sutured and the animal monitored until complete recovery.
(§2) Absorbance was measured at 550 nm.

wild-type and N-KO mice [2] = settings: for cell content of the bronchoalveolar lavage: intratracheal bleomycin without S17092, two weeks
Source text: as §1, §2

rats = settings: model of heart infarction; cited from earlier work
[3] = cited from earlier work
[4] = mouse; cited from earlier work
[5] = system: ACE N-domain and C-terminal domain; settings: N-domain versus C-terminal domain; cited from earlier work
wild-type and N-KO mice [6] = test: Survival analysis after intratracheal bleomycin
Source text: as §1, §2

[7] = system: wild-type, N-KO and C-KO mice; test: Weight loss after intratracheal instillation of bleomycin
Source text: as §1
Weight loss is a typical feature secondary to bleomycin administration and is associated with the severity of the pulmonary lesions.

patients = settings: cited from earlier work
wild-type and N-KO mice [8] = test: Lung histology 14 days after bleomycin; type: in vivo, mouse; settings: bleomycin 0.5 mg/kg
Procedure: A group of 8 N-KO and 8 wild-type control mice received 0.5 mg/kg body weight of bleomycin. These animals were sacrificed 14 days later. Under deep anesthesia, the thoracic cage was opened to expose the lung. A 25 G needle was secured in the trachea and 0.8 to 1 ml of 10% buffered formalin was injected until the lungs were inflated. The trachea was then ligatured. The whole lung was carefully collected in one block with the heart and immersed in formalin overnight. The tissue was then dehydrated and paraffin embedded using standard techniques. Five micron coronal sections were obtained from the central part of the lung and were stained with either Masson's trichrome or with hematoxylin and eosin. For each animal, both right and left lobes of the lung were examined by a pathologist blinded to the genotype of the mice.

CC(=O)N[C@@H](CO)C(=O)N[C@@H](CC(=O)O)C(=O)N[C@@H](CCCCN)C(=O)N1CCC[C@H]1C(=O)O [AcSDKP, N-acetyl-seryl-aspartyl-lysyl-proline] (Ac-SDKP-OH)
collagen deposition, as assessed by hydroxyproline ([1]; wild-type mice, AcSDKP 1 mg/kg/day by osmotic minipump, bleomycin): did not significantly reduce the collagen deposition | lavage cellularity (wild-type and N-KO mice [2]; wild-type mice, AcSDKP 1 mg/kg/day by osmotic minipump, bleomycin on day 2, two weeks later, versus saline-filled minipump): substantially reduced lavage cellularity | collagen deposition (rats): prevented and even reversed collagen deposition

Ac-Asp-(L)Pheψ(PO2—CH2)(L)Ala-Ala-NH2 (Ac-DFAA-NH2; also: Phe2-Ala3 peptide bond replaced by phosphinic ψ(PO2-CH2) bond) [RXP 407]
elevation of plasma Ac-SDKP ([3]; RXP 407 combined with Ac-SDKP infusion): 16 fold | increase of plasma level of Ac-SDKP ([3]; mouse, RXP 407 alone): ≤ 6 fold | stability in vivo [4]: stable in vivo | dissociation constant for the ACE N-domain relative to the C-terminal domain [5]: three orders of magnitude lower

bleomycin
long-term survival (wild-type and N-KO mice [6]; N-KO mice, bleomycin 5 mg/kg body weight intratracheal): 4 of 15 | mice surviving 12 days after drug administration (wild-type and N-KO mice [6]; wild-type mice, bleomycin 5 mg/kg body weight intratracheal): 1 of 15 | deaths (wild-type and N-KO mice [6]; wild-type or N-KO mice, bleomycin 1 mg/kg body weight intratracheal): virtually no deaths | pulmonary collagen levels (hydroxyproline) ([1]; N-KO mice, two weeks after intratracheal bleomycin): did not increase pulmonary collagen levels | hydroxyproline content of lungs ([1]; wild-type and C-KO mice, two weeks after intratracheal bleomycin): significantly increased the hydroxyproline content | cell content of the bronchoalveolar lavage (wild-type and N-KO mice [2]; N-KO mice): 12.73±1.58 10^5 cells per lung | cell content of the bronchoalveolar lavage (wild-type and N-KO mice [2]; wild-type mice): 24.21±3.10 10^5 cells per lung | weight loss, C-KO mice versus wild-type controls ([7]; C-KO mice): no significant difference in weight loss | weight loss ([7]; N-KO mice): 1.60±1.23% | weight loss ([7]; wild-type animals): 9.26±2.52% | patients with lung injury who die of lung injury (patients; of the patients who develop lung injury): 1-3% | patients developing sufficient lung injury to necessitate cessation of treatment (patients; patients treated with bleomycin, meta-analysis): 10 to 50% | lung histology (inflammation, collagen stripes) versus wild-type (wild-type and N-KO mice [8]; N-KO mice): much reduced | lung histology (wild-type and N-KO mice [8]; wild-type mice): extensive lung injury
